# Test: In vitro cytotoxicity in BALB/c3T3 mouse embryo fibroblasts.
# Settings: BALB/c3T3, read-out: LC50
compound,measurement,value
O=P1(N(CCCl)CCCl)NCCCO1 (stereo unspecified) [CYCLOPHOSPHAMIDE ANHYDROUS],CC50,37.6 µM
